Measured values as given in ChEMBL document CHEMBL1201862, “PubChem BioAssay data set” (2004).
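Briefly, cells in 96-well plates were exposed to five compound concentrations for 48 h, and endpoints were estimated by linear interpolation. GI50 marks 50% less growth.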 Calls of active or inactive are those of the source. Rule as the data show it: active = GI50 up to about 1.1 µM and inactive = higher.

Assays:
Assay in all cases: inhibition of tumour cell growth, NCI panel, 48 h
IGROV-1 = system: IGROV-1
SK-OV-3 = system: SK-OV-3
SF-268 = system: SF-268
UO-31 = system: UO-31
OVCAR-4 = system: OVCAR-4
NCI-H23 = system: NCI-H23
HL-60 = system: HL-60
TK-10 = system: TK-10
UACC-62 = system: UACC-62
MDA-MB-435 = system: MDA-MB-435
Hs-578T = system: Hs-578T
DU-145 = system: DU-145
Malme-3M = system: Malme-3M
HOP-92 = system: HOP-92
SF-539 = system: SF-539
HCT-116 = system: HCT-116
NCI-H226 = system: NCI-H226
SK-MEL-28 = system: SK-MEL-28
MOLT-4 = system: MOLT-4

Row | Structure (SMILES) | GI50 (IGROV-1) | GI50 (SK-OV-3) | GI50 (SF-268) | GI50 (UO-31) | GI50 (OVCAR-4) | GI50 (NCI-H23) | GI50 (HL-60) | GI50 (TK-10) | GI50 (UACC-62) | GI50 (MDA-MB-435) | GI50 (Hs-578T) | GI50 (DU-145) | GI50 (Malme-3M) | GI50 (HOP-92) | GI50 (SF-539) | GI50 (HCT-116) | GI50 (NCI-H226) | GI50 (SK-MEL-28) | GI50 (MOLT-4)
1 | O=[N+]([O-])c1ccc(Cl)cc1C1ON=C(c2ccccc2)N1C12CC3CC(CC(C3)C1)C2 (stereo not given) | > 100 µM (inactive) | > 100 µM (inactive) | > 100 µM (inactive) | > 100 µM (inactive) | > 100 µM (inactive) | > 100 µM (inactive) | 73.6 µM (inactive) | > 100 µM (inactive) | > 100 µM (inactive) | > 100 µM (inactive) | > 100 µM (inactive) | > 100 µM (inactive) | 49.4 µM (inactive) | > 100 µM (inactive) | > 100 µM (inactive) | 86.9 µM (inactive) | 64.3 µM (inactive) | > 100 µM (inactive) | > 100 µM (inactive)
2 | C=CCOc1ccc(C2(O)c3ccccc3C3=NCCCN32)cc1 (stereo not given) | 28.6 µM (inactive) | > 95.9 µM (inactive) | > 61.4 µM (inactive) | 51.8 µM (inactive) | > 71 µM (inactive) | 60.1 µM (inactive) | 35.7 µM (inactive) | > 100 µM (inactive) | 25.7 µM (inactive) | 30.1 µM (inactive) | > 73.8 µM (inactive) | > 100 µM (inactive) | 12.3 µM (inactive) | 43.6 µM (inactive) | 56 µM (inactive) | 49.9 µM (inactive) | > 77.1 µM (inactive) | 24.5 µM (inactive) | 33.2 µM (inactive)
3 | Nc1ccc2c(c1)N(C(=O)c1cc3cc(NC(=O)c4cc5ccccc5o4)ccc3[nH]1)CC2CCl (stereo not given) | 0.108 µM (active) | 0.128 µM (active) | 0.0498 µM (active) | 0.0296 µM (active) | 0.0605 µM (active) | 0.0211 µM (active) | 0.0416 µM (active) | 0.283 µM (active) | 0.112 µM (active) | 0.162 µM (active) | 0.293 µM (active) | 0.0254 µM (active) | 0.122 µM (active) | 0.168 µM (active) | 0.0191 µM (active) | 0.0533 µM (active) | 0.13 µM (active) | 0.177 µM (active) | 0.045 µM (active)
4 | CCOC(=O)CC(=O)C(=O)NN=C1NCCCN1 | > 100 µM (inactive) | > 100 µM (inactive) | > 100 µM (inactive) | > 100 µM (inactive) | > 100 µM (inactive) | > 100 µM (inactive) | > 100 µM (inactive) | > 100 µM (inactive) | > 100 µM (inactive) | > 100 µM (inactive) | > 100 µM (inactive) | > 100 µM (inactive) | > 100 µM (inactive) | > 100 µM (inactive) | > 100 µM (inactive) | > 100 µM (inactive) | > 100 µM (inactive) | > 100 µM (inactive) | > 100 µM (inactive)
5 | Cc1ccc(-c2n[nH]c(=O)n2N)cc1 | > 100 µM (inactive) | > 100 µM (inactive) | > 100 µM (inactive) | > 100 µM (inactive) | > 100 µM (inactive) | > 100 µM (inactive) | > 100 µM (inactive) | > 100 µM (inactive) | > 100 µM (inactive) | > 100 µM (inactive) | > 100 µM (inactive) | > 100 µM (inactive) | > 100 µM (inactive) | > 100 µM (inactive) | > 100 µM (inactive) | > 100 µM (inactive) | > 100 µM (inactive) | > 100 µM (inactive) | > 100 µM (inactive)
6 | CCOC(=S)SC/C(=N\OC(C)(C)OC)c1ccccc1 | 46.5 µM (inactive) | 43.7 µM (inactive) | 56.9 µM (inactive) | 31.2 µM (inactive) | 69 µM (inactive) | 31.7 µM (inactive) | 20.2 µM (inactive) | 46.6 µM (inactive) | 31.3 µM (inactive) | 25 µM (inactive) | 46.5 µM (inactive) | > 100 µM (inactive) | 45 µM (inactive) | 20.7 µM (inactive) | > 100 µM (inactive) | 24.9 µM (inactive) | 43.8 µM (inactive) | 47.3 µM (inactive) | 20 µM (inactive)
7 | CCOC(=O)CC[C@H](N)C(=O)N[C@@H](Cc1ccc(N(CCCl)CCCl)cc1)C(=O)OCC | 1.56 µM (inactive) | 1.48 µM (inactive) | 0.711 µM (active) | 0.807 µM (active) | 0.565 µM (active) | 0.278 µM (active) | 0.0705 µM (active) | 1.47 µM (inactive) | 0.256 µM (active) | 1.39 µM (inactive) | 2.16 µM (inactive) | 0.324 µM (active) | 0.291 µM (active) | 0.475 µM (active) | 0.706 µM (active) | 0.851 µM (active) | 11.1 µM (inactive) | 0.869 µM (active) | 0.0345 µM (active)
8 | CC1(C)C2CC1C(/C=N\OCC(=O)O)=CC2=O (stereo not given) | > 100 µM (inactive) | > 100 µM (inactive) | > 100 µM (inactive) | > 100 µM (inactive) | > 100 µM (inactive) | > 100 µM (inactive) | > 100 µM (inactive) | > 100 µM (inactive) | > 100 µM (inactive) | > 100 µM (inactive) | > 100 µM (inactive) | > 100 µM (inactive) | > 100 µM (inactive) | > 100 µM (inactive) | > 100 µM (inactive) | > 100 µM (inactive) | > 100 µM (inactive) | > 100 µM (inactive) | > 100 µM (inactive)
9 | CCn1c2ccc(O)c(C(=O)OC)c2c2cc3ccccc3c(O)c21 | 8 µM (inactive) | 10.5 µM (inactive) | 16.3 µM (inactive) | 22.5 µM (inactive) | 18.1 µM (inactive) | 16.9 µM (inactive) | 20.1 µM (inactive) | 15.9 µM (inactive) | 23.2 µM (inactive) | 17 µM (inactive) | 7.89 µM (inactive) | 14.5 µM (inactive) | 2.72 µM (inactive) | 1.95 µM (inactive) | 18.7 µM (inactive) | 12.6 µM (inactive) | 26.2 µM (inactive) | 26.2 µM (inactive) | 7.87 µM (inactive)
10 | COC(=O)C1CCC(=O)N1CN(C(C)=O)c1cccc(O)c1 (stereo not given) | > 100 µM (inactive) | > 100 µM (inactive) | > 100 µM (inactive) | > 100 µM (inactive) | > 100 µM (inactive) | > 100 µM (inactive) | > 100 µM (inactive) | > 100 µM (inactive) | > 100 µM (inactive) | > 100 µM (inactive) | > 100 µM (inactive) | > 100 µM (inactive) | > 100 µM (inactive) | > 100 µM (inactive) | > 100 µM (inactive) | > 100 µM (inactive) | > 100 µM (inactive) | > 100 µM (inactive) | > 100 µM (inactive)
11 | O=c1c2cc([N+](=O)[O-])ccc2n(Cc2ccccc2)n1Cc1ccccc1 | 20.8 µM (inactive) | > 10 µM (inactive) | 24.4 µM (inactive) | 12.4 µM (inactive) | 12.3 µM (inactive) | 13.1 µM (inactive) | 10.3 µM (inactive) | 22.8 µM (inactive) | 8.63 µM (inactive) | 10.8 µM (inactive) | 16.3 µM (inactive) | 17.3 µM (inactive) | > 17.8 µM (inactive) | 14.2 µM (inactive) | 19.2 µM (inactive) | 16.9 µM (inactive) | 12.7 µM (inactive) | 18.5 µM (inactive) | 11.8 µM (inactive)
12 | COc1cc(C(c2ccc3c(c2)OCO3)N2C(=O)CCC2C(=O)O)cc(OC)c1OC (stereo not given) | > 100 µM (inactive) | > 100 µM (inactive) | > 100 µM (inactive) | > 100 µM (inactive) | > 100 µM (inactive) | > 100 µM (inactive) | > 100 µM (inactive) | > 100 µM (inactive) | > 100 µM (inactive) | > 100 µM (inactive) | > 100 µM (inactive) | > 100 µM (inactive) | > 100 µM (inactive) | > 100 µM (inactive) | > 100 µM (inactive) | > 100 µM (inactive) | > 100 µM (inactive) | > 100 µM (inactive) | > 100 µM (inactive)
13 | Cc1nc2sc(C(=O)c3ccc(Cl)cc3)c(N)c2c(-c2ccccc2Cl)c1C(=O)Nc1ccccc1 | 19 µM (inactive) | 14.4 µM (inactive) | 19.3 µM (inactive) | 17.3 µM (inactive) | 16.5 µM (inactive) | 16.6 µM (inactive) | 11.2 µM (inactive) | 6.76 µM (inactive) | 13.6 µM (inactive) | 12.2 µM (inactive) | 20.1 µM (inactive) | 19.1 µM (inactive) | 13 µM (inactive) | 3.08 µM (inactive) | 14.7 µM (inactive) | 6.44 µM (inactive) | 17.7 µM (inactive) | 13.1 µM (inactive) | 14 µM (inactive)
14 | COC(=O)C1(NC(=O)C(CC(=O)OCc2ccccc2)NC(=O)OCc2ccccc2)CCCCCC1 (stereo not given) | 37.6 µM (inactive) | 35.4 µM (inactive) | 42 µM (inactive) | 35.1 µM (inactive) | 14.1 µM (inactive) | 41.8 µM (inactive) | 17.7 µM (inactive) | 67.8 µM (inactive) | 16.4 µM (inactive) | 28.8 µM (inactive) | 15.6 µM (inactive) | 66.5 µM (inactive) | 24.1 µM (inactive) | 36.6 µM (inactive) | 23.1 µM (inactive) | 31 µM (inactive) | 29.4 µM (inactive) | 26.3 µM (inactive) | 21.4 µM (inactive)
15 | CC(NNC(=O)c1ccncc1)c1cccc(C(F)(F)F)c1 (stereo not given) | > 100 µM (inactive) | > 100 µM (inactive) | > 100 µM (inactive) | > 100 µM (inactive) | > 100 µM (inactive) | > 100 µM (inactive) | > 100 µM (inactive) | > 100 µM (inactive) | > 100 µM (inactive) | > 100 µM (inactive) | > 100 µM (inactive) | > 100 µM (inactive) | > 100 µM (inactive) | > 100 µM (inactive) | > 100 µM (inactive) | > 100 µM (inactive) | > 100 µM (inactive) | > 100 µM (inactive) | > 100 µM (inactive)
